Tests used:
[1] = solvent furfural; cited from earlier work
[2] = Solubility of crosslinking agent HMTA in methyl benzoate by proton NMR with duroquinone internal standard; assay type: physicochemical; conditions: solvent methyl benzoate
Method: For compositional analysis, a Bruker 400 megahertz (MHz) NMR instrument was used. The solubility of crosslinking agent, HMTA, in methyl benzoate was measured by using duroquinone as the internal standard.
The high solubility of HMTA results directly from the plasticized phenol-formaldehyde prepolymer. […] J. P. Patel, et al., J. Polym. Sci. Part B: Polym. Phys., 2015, vol. 53, pp. 1519-1526. […] In this scheme methyl benzoate indirectly increases the interaction between the two reactants, the crosslinking agent HMTA and the phenol-formaldehyde prepolymer.

Structure (SMILES): C1N2CN3CN1CN(C2)C3 [HMTA, hexamethylenetetramine]
- solubility of HMTA in furfural [1]: less than two
- solubility of HMTA in methyl benzoate (in words) [2]: virtually insoluble
- solubility of HMTA in methyl benzoate ([2]; proton NMR, duroquinone internal standard): no more than 5 milligrams of HMTA per milliliter of methyl benzoate
